Key:
human LXR alpha = molecular target: T1, human LXR alpha (Homo sapiens, UniProt Q13133); assay: Radioligand binding assay (scintillation proximity), LXRα-LBD; details: LXRα-LBD on SPA beads, read-out: LXRalpha Binding IC50
T1 construct: human LXR alpha (aa 164 to 447); made in house; host or cells: E. coli BL21 (pLysS)
T1 sequence (Q13133 164-447): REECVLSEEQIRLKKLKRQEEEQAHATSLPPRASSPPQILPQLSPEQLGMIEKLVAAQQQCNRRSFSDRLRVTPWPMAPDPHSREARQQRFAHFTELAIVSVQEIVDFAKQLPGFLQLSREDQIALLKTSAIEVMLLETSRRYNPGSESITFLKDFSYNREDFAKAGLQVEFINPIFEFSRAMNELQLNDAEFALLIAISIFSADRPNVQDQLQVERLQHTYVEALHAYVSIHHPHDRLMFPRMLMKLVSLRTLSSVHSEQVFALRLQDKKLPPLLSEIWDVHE
Experimental: (§1) The following tests were carried out in order to determine the activity of the compounds of the present invention. […] Mammalian expression vectors were constructed to express full-length human LXR alpha and LXR beta. […] To accomplish this, the portions of the sequences encoding the LBDs were amplified from the full-length clones by PCR and then subcloned into the plasmid vectors.
(§2) Induction, expression, and purification of LBD proteins were performed in E. coli strain BL21 (pLysS) cells by standard methods (Ref: Current Protocols in Molecular Biology, Wiley Press, edited by Ausubel et al).
(§3) Radioligand Binding Assay
(§4) LXR alpha and LXR beta receptor binding were assayed in buffer consisting of 50 mM HEPES, pH 7.4, 10 mM NaCl, 5 mM MgCl2. For each 96-well reaction, 500 ng of LXRα-LBD or 700 ng of LXR beta-LBD proteins were bound to 80 μg or 40 μg SPA beads respectively, in a final volume of 50 μl by shaking. The resulting slurry was incubated for 1 h at RT and centrifuged for 2 min at 1300×g. The supernatant containing unbound protein was removed, and the semi-dry pellet containing the receptor-coated beads was re-suspended in 50 μl of buffer. Radioligand (eg. 100,000 dpm of (N-(2,2,2-trifluoroethyl)-N-[4-(2,2,2-trifluoro-1-hydroxy-1-trifluoromethylethyl)-phenyl]-benzenesulfonamide)) was added, and the reaction incubated at RT for 1 h in the presence of test compounds, and then scintillation proximity counting was performed. All binding assays were performed in 96-well plates and the amount of bound ligand was measured on a Packard TopCount using OptiPlates (Packard). Dose response curves were measured within a range of concentration from 10^−10 M to 10^−4 M.

human LXR beta = molecular target: T2, human LXR beta (Homo sapiens, UniProt P55055); assay: Radioligand binding assay (scintillation proximity), LXR beta-LBD; details: LXR beta-LBD on SPA beads, read-out: LXRbeta Binding IC50
T2 construct: human LXR beta (aa 155 to 460); made in house; host or cells: E. coli BL21 (pLysS)
T2 sequence (P55055 155-460): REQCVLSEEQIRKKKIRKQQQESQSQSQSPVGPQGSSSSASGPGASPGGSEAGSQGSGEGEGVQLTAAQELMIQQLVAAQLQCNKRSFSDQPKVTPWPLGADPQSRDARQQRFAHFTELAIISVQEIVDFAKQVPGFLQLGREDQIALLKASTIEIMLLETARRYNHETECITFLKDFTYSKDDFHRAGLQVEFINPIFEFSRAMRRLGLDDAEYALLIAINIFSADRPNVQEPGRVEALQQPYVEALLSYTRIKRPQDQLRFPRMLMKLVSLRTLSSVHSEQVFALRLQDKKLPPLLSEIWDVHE
Experimental: as §1, §2, §3, §4

Row | Compound | IC50 (human LXR alpha) [nM] | IC50 (human LXR beta) [nM]
1 | CN(Cc1ccc(-c2cccc(S(C)(=O)=O)c2)s1)S(=O)(=O)c1ccccc1C(F)(F)F [Example 27, N-[5-(3-Methanesulfonyl-phenyl)-thiophen-2-ylmethyl]-N-methyl-2-trifluoromethyl-benzenesulfonamide] | 29200 | 2610
2 | CCN(Cc1ccc(-c2cccc(S(C)(=O)=O)c2)s1)S(=O)(=O)c1ccccc1C(F)(F)F [Example 28, N-Ethyl-N-[5-(3-methanesulfonyl-phenyl)-thiophen-2-ylmethyl]-2-trifluoromethyl-benzenesulfonamide] | 19900 | 440
3 | CCCN(Cc1ccc(-c2cccc(S(C)(=O)=O)c2)s1)S(=O)(=O)c1ccccc1C(F)(F)F [Example 29, N-[5-(3-Methanesulfonyl-phenyl)-thiophen-2-ylmethyl]-N-propyl-2-trifluoromethyl-benzenesulfonamide] | 2460 | 104
4 | CC(C)N(Cc1ccc(-c2cccc(S(C)(=O)=O)c2)s1)S(=O)(=O)c1ccccc1C(F)(F)F [Example 30, N-Isopropyl-N-[5-(3-methanesulfonyl-phenyl)-thiophen-2-ylmethyl]-2-trifluoromethyl-benzenesulfonamide] | 7860 | 470
5 | CC(C)CN(Cc1ccc(-c2cccc(S(C)(=O)=O)c2)s1)S(=O)(=O)c1ccccc1C(F)(F)F [Example 31, N-Isobutyl-N-[5-(3-methanesulfonyl-phenyl)-thiophen-2-ylmethyl]-2-trifluoromethyl-benzenesulfonamide] | 1460 | 85
6 | CS(=O)(=O)c1cccc(-c2ccc(CN(CC3CC3)S(=O)(=O)c3ccccc3C(F)(F)F)s2)c1 [Example 32, N-Cyclopropylmethyl-N-[5-(3-methanesulfonyl-phenyl)-thiophen-2-ylmethyl]-2-trifluoromethyl-benzenesulfonamide] | 845 | 106
7 | CS(=O)(=O)c1cccc(-c2ccc(CN(Cc3ccccc3F)S(=O)(=O)c3ccccc3C(F)(F)F)s2)c1 [Example 33, N-(2-Fluoro-benzyl)-N-[5-(3-methanesulfonyl-phenyl)-thiophen-2-ylmethyl]-2-trifluoromethyl-benzenesulfonamide] | 13.5 | 6.6
8 | Cc1noc(C)c1CN(Cc1ccc(-c2cccc(S(C)(=O)=O)c2)s1)S(=O)(=O)c1ccccc1C(F)(F)F [Example 34, N-(3,5-Dimethyl-isoxazol-4-ylmethyl)-N-[5-(3-methanesulfonyl-phenyl)-thiophen-2-ylmethyl]-2-trifluoromethyl-benzenesulfonamide] | 60.5 | 83
9 | COCCN(Cc1ccc(-c2cccc(S(C)(=O)=O)c2)s1)S(=O)(=O)c1ccccc1C(F)(F)F [Example 35, N-[5-(3-Methanesulfonyl-phenyl)-thiophen-2-ylmethyl]-N-(2-methoxy-ethyl)-2-trifluoromethyl-benzenesulfonamide] | 975 | 116
10 | CS(=O)(=O)c1cccc(-c2ccc(CN(CC3CCC3)S(=O)(=O)c3ccccc3C(F)(F)F)s2)c1 [Example 36, N-Cyclobutylmethyl-N-[5-(3-methanesulfonyl-phenyl)-thiophen-2-ylmethyl]-2-trifluoromethyl-benzenesulfonamide] | 665 | 17.5
11 | CC(C)(C)OC(=O)CN(Cc1ccc(-c2cccc(S(C)(=O)=O)c2)s1)S(=O)(=O)c1ccccc1C(F)(F)F [Example 37, [[5-(3-Methanesulfonyl-phenyl)-thiophen-2-ylmethyl]-(2-trifluoromethyl-benzenesulfonyl)-amino]-acetic acid tert-butyl ester] | 17.5 | 11.5
12 | CCN(CC)C(=O)CN(Cc1ccc(-c2cccc(S(C)(=O)=O)c2)s1)S(=O)(=O)c1ccccc1C(F)(F)F [Example 38, N,N-Diethyl-2-[[5-(3-methanesulfonyl-phenyl)-thiophen-2-ylmethyl]-(2-trifluoromethyl-benzenesulfonyl)-amino]-acetamide] | 2410 | 160
13 | CS(=O)(=O)c1cccc(-c2ccc(CN(CC3OCCO3)S(=O)(=O)c3ccccc3C(F)(F)F)s2)c1 [Example 39, N-[1,3]Dioxolan-2-ylmethyl-N-[5-(3-methanesulfonyl-phenyl)-thiophen-2-ylmethyl]-2-trifluoromethyl-benzenesulfonamide] | 820 | 47
14 | CS(=O)(=O)c1cccc(-c2ccc(CN(CCN3CCCC3)S(=O)(=O)c3ccccc3C(F)(F)F)s2)c1 [Example 40, N-[5-(3-Methanesulfonyl-phenyl)-thiophen-2-ylmethyl]-N-(2-pyrrolidin-1-yl-ethyl)-2-trifluoromethyl-benzenesulfonamide] | 10700 | 285
15 | CS(=O)(=O)c1cccc(-c2ccc(CN(CC3CCCO3)S(=O)(=O)c3ccccc3C(F)(F)F)s2)c1 (centres unmarked) [Example 41, N-[5-(3-Methanesulfonyl-phenyl)-thiophen-2-ylmethyl]-N-(tetrahydro-furan-2-ylmethyl)-2-trifluoromethyl-benzenesulfonamide] | 790 | 37
16 | CC(C)CN(Cc1ccc(-c2cccc(S(C)(=O)=O)c2)cc1F)S(=O)(=O)c1ccccc1Cl [Example 42, 2-Chloro-N-(3-fluoro-3′-methanesulfonyl-biphenyl-4-ylmethyl)-N-isobutyl-benzenesulfonamide] | 8.2 | 6.8
17 | CC(C)CN(Cc1cccc(-c2cccc(S(C)(=O)=O)c2)c1)S(=O)(=O)c1ccccc1Cl [Example 43, 2-Chloro-N-isobutyl-N-(3′-methanesulfonyl-biphenyl-3-ylmethyl)-benzenesulfonamide] | 26 | 19
18 | CC(C)CN(Cc1cncc(-c2cccc(S(C)(=O)=O)c2)c1)S(=O)(=O)c1ccccc1Cl [Example 44, 2-Chloro-N-isobutyl-N-[5-(3-methanesulfonyl-phenyl)-pyridin-3-ylmethyl]-benzenesulfonamide] | 3440 | 30
19 | CC(C)CN(Cc1ccc(-c2cccc(S(C)(=O)=O)c2)cn1)S(=O)(=O)c1ccccc1Cl [Example 45, 2-Chloro-N-isobutyl-N-[5-(3-methanesulfonyl-phenyl)-pyridin-2-ylmethyl]-benzenesulfonamide] | 425 | 2.3
20 | CC(C)CN(Cc1cccc(-c2cccc(S(C)(=O)=O)c2)n1)S(=O)(=O)c1ccccc1Cl [Example 47, 2-Chloro-N-isobutyl-N-[6-(3-methanesulfonyl-phenyl)-pyridin-2-ylmethyl]-benzenesulfonamide] | 1480 | 49.5
21 | CC(C)CN(Cc1ccnc(-c2cccc(S(C)(=O)=O)c2)c1)S(=O)(=O)c1ccccc1Cl [Example 48, 2-Chloro-N-isobutyl-N-[2-(3-methanesulfonyl-phenyl)-pyridin-4-ylmethyl]-benzenesulfonamide] | 7860 | 150
22 | CCCN(Cc1cccc(-c2cccc(S(C)(=O)=O)c2)c1)S(=O)(=O)C(C)C [Example 49, Propane-2-sulfonic acid (3′-methanesulfonyl-biphenyl-3-ylmethyl)-propyl-amide] | 20100 | 1560
23 | CC(C)CN(Cc1cccc(-c2cccc(S(C)(=O)=O)c2)c1)S(=O)(=O)C(C)C [Example 50, Propane-2-sulfonic acid isobutyl-(3′-methanesulfonyl-biphenyl-3-ylmethyl)-amide] | 2270 | 805
24 | CC(C)S(=O)(=O)N(Cc1cccc(-c2cccc(S(C)(=O)=O)c2)c1)CC1CCC1 [Example 51, Propane-2-sulfonic acid cyclobutylmethyl-(3′-methanesulfonyl-biphenyl-3-ylmethyl)-amide] | 1630 | 280
25 | CC(C)S(=O)(=O)N(Cc1cccc(-c2cccc(S(C)(=O)=O)c2)c1)Cc1ccccc1F [Example 52, Propane-2-sulfonic acid (2-fluoro-benzyl)-(3′-methanesulfonyl-biphenyl-3-ylmethyl)-amide] | 610 | 33.5
